US11666071B2, “Compound salt of N,N-dimethylglycine and an organic acid and composition and use thereof” (GUANGZHOU INSIGHTER BIOTECHNOLOGY CO., LTD., priority 2017, dated 2023)
Where a name gives a salt, the structure may show the parent alone. Marks after values point to notes of the source that are not given here.

Key:
[1] = High-humidity stability test (hygroscopic weight gain); type: physicochemical; conditions: 25° C.; for hygroscopic weight gain, Day 5 (%) / hygroscopic weight gain, Day 10 (%): RH 95%±1%; for hygroscopicity / status of sample: RH 95%; for hygroscopic weight gain, Day 5 (%) / hygroscopicity / status of sample: day 5
[2] = test system: Duroc×Landrace×Large White weaned pigs; test: Copper salt of N,N-dimethylglycine and fumaric acid on weaned pigs; type: in vivo, pig
Experimental: The […] utensils were disinfected before the experiment. The pigs were kept in pens in the same […] under the same breeding conditions during the experiment. […] The test was carried out for 15 days. […] The experiment data were analyzed with SPSS18 software.

[3] = test system: Duroc×Landrace×Large White weaned pigs; test: Zinc salt of N,N-dimethylglycine and fumaric acid in weaned-pig feed; type: in vivo; conditions: 15 days
From the text: The pigsty and utensils were disinfected before the experiment. The pigs were kept in pens in the same pigsty under the same breeding conditions during the experiment. […] The groups included a control group, a comparative example and experiment groups 1-6. The control group was provided with only the basic diets, the comparative example was provided with 2500 ppm of zinc oxide, and the experiment groups 1-6 were respectively provided with the basic diets together with the hybrid pellet feed additive product 7 provided by the present invention in different concentrations, as shown in Table 9. […] The experiment was carried out for 15 days. […] The experiment data were analyzed with SPSS18 software.

Which “hygroscopic weight gain, Day 5 (%)” value [1] does the source give for “Copper salt of N,N-dimethylglycine and fumaric acid [Sample 14]” here?
The value was 2.56 ± 0.11%.

And the “hygroscopic weight gain, Day 10 (%)” value [1]?
The value was 2.81 ± 0.06%.

And the “effect on the average daily weight gain of weaned pigs” value ([2]; 30-100 ppm, 15 days)?
Its value is “no significant effect”.

What about the “effect on the feed intake of weaned pigs” value ([2]; 30-100 ppm, 15 days) of the same molecule?
The value was “no significant effect”.

What about the “reduction of feed conversion ratio compared with the control group” value ([2]; dose 100 ppm) of the same molecule?
The value was 8.61%.

What about the “dose at which feed conversion ratio is significantly reduced” value ([2]; weaned pigs, 15 days) of the same molecule?
The value was 30-100 ppm.

For “Calcium N,N-dimethylglycinate [Sample 3, reference compound]”, which “hygroscopicity / status of sample” value [1] is on record?
Its value is “very high hygroscopicity”.

And the “hygroscopic weight gain, Day 5 (%)” value [1]?
The value was 38.40 ± 0.22%.

And the “hygroscopic weight gain, Day 10 (%)” value [1]?
The value was 41.83 ± 0.35%.

For `O.O.O.O.O.O=S(=O)([O-])[O-].[Cu+2]` [Copper sulfate pentahydrate, reference compound], which “ADFI” value ([2]; dose 250 ppm, 15 days) is on record?
Its value is 94.67 ± 1.33 kg.

And the “ADG” value ([2]; dose 250 ppm, 15 days)?
The value was 46.38 ± 1.01 kg.

And the FCR ([2]; dose 250 ppm, 15 days)?
The FCR was 2.042 ± 0.021^b.

Which “hygroscopicity / status of sample” value [1] does the source give for `CN(C)CC(=O)[O-].[Na+]` [Sample 2, Sodium N,N-dimethylglycinate, reference compound] here?
Its value is “very high hygroscopicity”.

What about the “hygroscopic weight gain, Day 5 (%)” value [1] of the same molecule?
Its value is 49.09 ± 1.14%.

And the “hygroscopic weight gain, Day 10 (%)” value [1]?
Its value is 52.44 ± 0.48%.

For “Calcium salt of N,N-dimethylglycine and tetradecanoic acid [Sample 9]”, which “hygroscopic weight gain, Day 5 (%)” value [1] is on record?
Its value is 2.11 ± 0.04%.

What about the “hygroscopic weight gain, Day 10 (%)” value [1] of the same molecule?
The value was 2.75 ± 0.32%.

Which “hygroscopic weight gain, Day 5 (%)” value [1] does the source give for “Calcium salt of N,N-dimethylglycine and fumaric acid [Sample 8]” here?
Its value is 2.95 ± 0.22%.

And the “hygroscopic weight gain, Day 10 (%)” value [1]?
The value was 3.25 ± 0.12%.

Which results are given for “Calcium salt of N,N-dimethylglycine and p-methylbenzenesulfonic acid [Sample 10]”?
hygroscopic weight gain, Day 5 (%) [1]: 2.84 ± 0.23%; hygroscopic weight gain, Day 10 (%) [1]: 3.01 ± 0.11%

For `CN(C)CC(=O)O` [Sample 6, Calcium salt of N,N-dimethylglycine and sulfuric acid], which “hygroscopicity / status of sample” value [1] is on record?
Its value is “water-like status”.

What about the “hygroscopic weight gain, Day 5 (%)” value [1] of the same molecule?
The value was 61.72 ± 0.41%.

What about the “hygroscopic weight gain, Day 10 (%)” value [1] of the same molecule?
Its value is 60.58 ± 0.21%.

With “Zinc salt of N,N-dimethylglycine and fumaric acid [Sample 13]” as the molecule, how does the “hygroscopic weight gain, Day 5 (%)” value [1] read?
The value was 2.26 ± 0.09%.

What about the “hygroscopic weight gain, Day 10 (%)” value [1] of the same molecule?
The value was 2.76 ± 0.23%.

And the “effect on the feed intake of weaned pigs” value ([3]; 55-520 ppm)?
The value was “no significant effect”.

And the “dose at which reduction of feed conversion ratio is significant and equivalent to high-dose zinc oxide” value ([3]; weaned pigs)?
The value was “higher than 390 ppm”.

What about the “dose that significantly increases average daily weight gain to the level of 2500 ppm zinc oxide” value ([3]; weaned pigs) of the same molecule?
Its value is “about 260 ppm”.

With `[O]=[Zn]` [Zinc oxide, reference compound] as the molecule, how does the FCR ([3]; dose 2500 ppm) read?
Its FCR is 1.808 ± 0.018.

With `CN(C)CC(=O)[O-].O=C([O-])c1ccccc1.[Cu+2]` [Sample 11] as the molecule, how does the “hygroscopic weight gain, Day 5 (%)” value [1] read?
The value was 2.41 ± 0.07%.

What about the “hygroscopic weight gain, Day 10 (%)” value [1] of the same molecule?
Its value is 2.81 ± 0.10%.

Which “hygroscopicity / status of sample” value [1] does the source give for `CN(C)CC(=O)O.Cl` [Sample 1, N,N-dimethylglycine hydrochloride, reference compound] here?
The value was “very high hygroscopicity”.

What about the “hygroscopic weight gain, Day 5 (%)” value [1] of the same molecule?
The value was 79.86 ± 0.94%.

What about the “hygroscopic weight gain, Day 10 (%)” value [1] of the same molecule?
The value was 80.69 ± 0.59%.
